This passage reports IC50 results from patent US20230086702A1, “SUBSTITUTED 2-AMINO-PYRAZOLYL-[1,2,4]TRIAZOLO[1,5A]PYRIDINE DERIVATIVES AND USE THEREOF” (The Johns Hopkins University, priority 2019, published 2023).

The target of one assay is T1, DLK (Homo sapiens, UniProt Q12852).
T1 construct: 10 nM DLK, catalytic domain, Carna Biosiences; purchased Carna Biosciences ('Carna Biosiences' [sic])
T1 sequence (Q12852 125-366 limits assumed): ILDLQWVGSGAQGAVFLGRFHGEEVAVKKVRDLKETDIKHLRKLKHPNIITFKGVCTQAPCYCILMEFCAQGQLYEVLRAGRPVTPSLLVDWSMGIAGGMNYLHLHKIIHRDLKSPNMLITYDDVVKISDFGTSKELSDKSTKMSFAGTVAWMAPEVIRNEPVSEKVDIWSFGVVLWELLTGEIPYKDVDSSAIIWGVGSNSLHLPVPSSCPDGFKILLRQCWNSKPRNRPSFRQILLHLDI
Nature of the assay: DLK biochemical assay (TR-FRET, MKK7 phosphorylation). Conditions: DLK catalytic domain, MKK7 substrate, 60 μM ATP. The gist of the method: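 Human DLK activity measured as phosphorylation of His-tagged MKK7 at T275/S277, detected by TR-FRET between Eu-anti-phospho-MKK7 donor (excitation 340 nm) and XL665-anti-His acceptor (665 nm). Signal taken as the XL665/Eu ratio. Detection buffer: 25 mM Tris/HCl pH 7.5, 100 mM EDTA, 100 mM NaCl, 200 mM KF, 0.01% Tween 20.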

The next assay has as its target T2, LZK (Homo sapiens, UniProt O43283).
T2 construct: 10 nM LZK, catalytic domain, Carna Biosiences in assay buffer; purchased Carna Biosciences ('Carna Biosiences' [sic])
T2 sequence (O43283 168-409 limits assumed): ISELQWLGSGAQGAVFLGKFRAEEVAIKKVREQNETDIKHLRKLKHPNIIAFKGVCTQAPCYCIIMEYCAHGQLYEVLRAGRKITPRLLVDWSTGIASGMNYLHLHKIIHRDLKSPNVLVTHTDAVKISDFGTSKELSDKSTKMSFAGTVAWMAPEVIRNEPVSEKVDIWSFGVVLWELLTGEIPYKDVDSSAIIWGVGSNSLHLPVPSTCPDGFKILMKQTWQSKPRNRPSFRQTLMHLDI
Put plainly: LZK biochemical assay (TR-FRET, MKK7 phosphorylation). Conditions: LZK catalytic domain, MKK7 substrate, 15 μM ATP.

Molecules are shown by their SMILES.

As to `CC[C@H](C)NC(=O)c1cc(-c2cnn(C(c3ccnc(OC)c3)C(C)C)c2)cc2nc(N)nn12` (mixture of isomers) [Example I-126, 2-Amino-N-[(2S)-butan-2-yl]-7-{1-[1-(2-methoxypyridin-4-yl)-2-methylpropyl]-1H-pyrazol-4-yl}[1,2,4]triazolo[1,5-a]pyridine-5-carboxamide], the IC50 at DLK is 0.2 nM; on LZK, 1.3 nM.
The corresponding values for `CCC(c1ccc(Cl)s1)n1cc(-c2cc(C(=O)N[C@@H](C)CC)c3nc(N)nn3c2)cn1` (mixture of isomers) [Example I-129, 2-Amino-N-[(2S)-butan-2-yl]-6-{1-[1-(5-chloro-2-thienyl)propyl]-1H-pyrazol-4-yl}[1,2,4]triazolo[1,5-a]pyridine-8-carboxamide] are 3.4 nM and 39 nM.
On the same counts, the results for `C[C@@H](CF)NC(=O)c1cc(-c2cnn(C3CCOc4ccccc43)c2)cn2nc(N)nc12` (mixture of isomers) [Example I-143, 2-Amino-6-{1-[3,4-dihydro-2H-1-benzopyran-4-yl]-1H-pyrazol-4-yl}-N-[1-fluoropropan-2-yl][1,2,4]triazolo[1,5-a]pyridine-8-carboxamide] are 33 nM and 15 nM.
On the same counts, the results for `CC(CF)NC(=O)c1cc(-c2cnn(C3CCOc4ccccc43)c2)cn2nc(N)nc12` (mixture of isomers) [Example I-144, 2-Amino-6-{1-(3,4-dihydro-2H-1-benzopyran-4-yl)-1H-pyrazol-4-yl}-N-[1-fluoropropan-2-yl][1,2,4]triazolo[1,5-a]pyridine-8-carboxamide] are 84 nM and 79 nM.
For `CCC(c1ccc(C(F)(F)F)nc1)n1cc(-c2cc(C(=O)NC(C)CF)c3nc(N)nn3c2)cn1` (mixture of isomers) [Example I-147], the concentration for half-maximal inhibition (IC50) at DLK is 3.9 nM; against LZK it was 25 nM.
The corresponding values for `CC[C@@H](c1ccc(F)cc1)n1cc(-c2cc(C(=O)NC(C)CF)n3nc(N)nc3c2)cn1` (mixture of isomers) [Example I-148, 2-Amino-7-{1-[(1S)-1-(4-fluorophenyl)propyl]-1H-pyrazol-4-yl}-N-(1-fluoropropan-2-yl)[1,2,4]triazolo[1,5-a]pyridine-5-carboxamide] are 1.6 nM and 32 nM.
The corresponding values for `CCC(c1ccc(C(F)(F)F)nc1)n1cc(-c2cc(C(=O)N[C@@H](C)CO)c3nc(N)nn3c2)cn1` (mixture of isomers) [Example I-151, 2-Amino-N-[(2S)-1-hydroxypropan-2-yl]-6-(1-{1-[6-(trifluoromethyl)pyridin-3-yl]propyl}-1H-pyrazol-4-yl)[1,2,4]triazolo[1,5-a]pyridine-8-carboxamide] are 6.9 nM and 9.8 nM.
Regarding `C[C@@H](CO)NC(=O)c1cc(-c2cnn(C(c3ccc(C(F)(F)F)nc3)C3CCOCC3)c2)cn2nc(N)nc12` (mixture of isomers) [Example I-154, 2-Amino-N-[(25)-1-hydroxypropan-2-yl]-6-(1-{tetrahydro-2H-pyran-4-yl[6-(trifluoromethyl)pyridin-3-yl]methyl}-1H-pyrazol-4-yl)[1,2,4]triazolo[1,5-a]pyridine-8-carboxamide], the values for the half-maximal inhibitory concentration (IC50) against DLK and on LZK were 1.1 nM and 4.6 nM, respectively.
The corresponding values for `CCC(c1ccc(OC(F)(F)F)nc1)n1cc(-c2cc(C(=O)N[C@@H](C)CO)c3nc(N)nn3c2)cn1` (mixture of isomers) [Example I-157, 2-Amino-N-[(2S)-1-hydroxypropan-2-yl]-6-(1-{1-[6-(trifluoromethoxy)pyridin-3-yl]propyl}-1H-pyrazol-4-yl)[1,2,4]triazolo[1,5-a]pyridine-8-carboxamide] are 5.7 nM and 13 nM.
On the same counts, the results for `CC(C)C(c1ccc(F)cc1)n1cc(-c2cc(C(=O)N[C@@H](C)CO)c3nc(N)nn3c2)cn1` (mixture of isomers) [Example I-160, 2-Amino-6-{1-[1-(4-fluorophenyl)-2-methylpropyl]-1H-pyrazol-4-yl}-N-[(2S)-1-hydroxypropan-2-yl][1,2,4]triazolo[1,5-a]pyridine-8-carboxamide] are 4.3 nM and 130 nM.
On the same counts, the results for `CCC(c1ccc(C(F)(F)F)nc1)n1cc(-c2cc(C(=O)N[C@H]3CCOC3)n3nc(N)nc3c2)cn1` (mixture of isomers) [Example I-177, 2-Amino-N-[(3S)-tetrahydrofuran-3-yl]-7-(1-{1-[6-(trifluoromethyl)pyridin-3-yl]propyl}-1H-pyrazol-4-yl)[1,2,4]triazolo[1,5-a]pyridine-5-carboxamide] are 2.6 nM and 18 nM.
Turning to `CC(C)C(c1ccc(C(F)(F)F)nc1)n1cc(-c2cc(C(=O)N[C@H]3CCOC3)n3nc(N)nc3c2)cn1` (mixture of isomers) [Example I-180, 2-Amino-7-(1-{2-methyl-1-[6-(trifluoromethyl)pyridin-3-yl]propyl}-1H-pyrazol-4-yl)-N-[(3S)-tetrahydrofuran-3-yl][1,2,4]triazolo[1,5-a]pyridine-5-carboxamide], the IC50 against DLK amounted to 1.6 nM; on LZK, 6.1 nM.
On the same counts, the results for `Nc1nc2cc(-c3cnn(C(c4ccc(C(F)(F)F)nc4)C4CCOCC4)c3)cc(C(=O)N[C@H]3CCOC3)n2n1` (mixture of isomers) [Example I-183, 2-Amino-N-[(3S)-tetrahydrofuran-3-yl]-7-(1-{tetrahydro-2H-pyran-4-yl[6-(trifluoromethyl)pyridin-3-yl]methyl}-1H-pyrazol-4-yl)[1,2,4]triazolo[1,5-a]pyridine-5-carboxamide] are 1.7 nM and 6 nM.
The corresponding values for `CCC(c1ccc(OCC(F)(F)F)nc1)n1cc(-c2cc(C(=O)N[C@H]3CCOC3)n3nc(N)nc3c2)cn1` (mixture of isomers) [Example I-186] are 6.2 nM and 16 nM.
The corresponding values for `Nc1nc2c(C(=O)NC3CNC(=O)C3)cc(-c3cnn(Cc4ccc(F)cc4)c3)cn2n1` (racemic) [Example I-136, 2-Amino-6-[1-(4-fluorobenzyl)-1H-pyrazol-4-yl]-N-(5-oxopyrrolidin-3-yl)[1,2,4]triazolo[1,5-a]pyridine-8-carboxamide] are 23 nM and 210 nM.
Regarding `CC(CF)NC(=O)c1cc(-c2cnn(CC3CC3)c2)cn2nc(N)nc12` (racemic) [Example I-137, 2-Amino-6-[1-(cyclopropylmethyl)-1H-pyrazol-4-yl]-N-[1-fluoropropan-2-yl][1,2,4]triazolo[1,5-a]pyridine-8-carboxamide], the half-maximal inhibitory concentration (IC50) on DLK came to 140 nM; at LZK, 150 nM.
On the same counts, the results for `CC(CF)NC(=O)c1cc(-c2cnn(Cc3cccc4cn[nH]c34)c2)cn2nc(N)nc12` (racemic) [Example I-138, 2-Amino-N-(1-fluoropropan-2-yl)-6-{1-[(1H-indazol-7-yl)methyl]-1H-pyrazol-4-yl} [1,2,4]triazolo[1,5-a]pyridine-8-carboxamide] are 3 nM and 190 nM.
On to `CCC(c1ccc(C(F)(F)F)nc1)n1cc(-c2cc(C(=O)NC(C)(C)CO)c3nc(N)nn3c2)cn1` (racemic) [Example I-163, 2-Amino-N-(1-hydroxy-2-methylpropan-2-yl)-6-(1-{1-[6-(trifluoromethyl)pyridin-3-yl]propyl}-1H-pyrazol-4-yl)[1,2,4]triazolo[1,5-a]pyridine-8-carboxamide], for which the IC50 at DLK worked out at 7.6 nM; at LZK, 30 nM.
On the same counts, the results for `CC(C)(CO)NC(=O)c1cc(-c2cnn(C(c3ccc(C(F)(F)F)nc3)C3CCOCC3)c2)cn2nc(N)nc12` (racemic) [Example I-166, 2-Amino-N-(1-hydroxy-2-methylpropan-2-yl)-6-(1-{tetrahydro-2H-pyran-4-yl[6-(trifluoromethyl)pyridin-3-yl]methyl}-1H-pyrazol-4-yl)[1,2,4]triazolo[1,5-a]pyridine-8-carboxamide] are 4.2 nM and 20 nM.
On the same counts, the results for `CCC(c1ccc(OC(F)(F)F)nc1)n1cc(-c2cc(C(=O)NC(C)(C)CO)c3nc(N)nn3c2)cn1` (racemic) [Example I-169, 2-Amino-N-(1-hydroxy-2-methylpropan-2-yl)-6-(1-{1-[6-(trifluoromethoxy)pyridin-3-yl]propyl}-1H-pyrazol-4-yl)[1,2,4]triazolo[1,5-a]pyridine-8-carboxamide] are 26 nM and 71 nM.
On the same counts, the results for `CC(C)C(c1cncc(Cl)c1)n1cc(-c2cc(C(=O)NC(C)(C)CO)c3nc(N)nn3c2)cn1` (racemic) [Example I-172, 2-Amino-6-{1-[1-(5-chloropyridin-3-yl)-2-methylpropyl]-1H-pyrazol-4-yl}-N-(1-hydroxy-2-methylpropan-2-yl)[1,2,4]triazolo[1,5-a]pyridine-8-carboxamide] are 4 nM and 76 nM.
